Measurements from US20060069132A1, “Azolecarboxamide herbicides” (priority 2004, published 2006).

How the values were obtained:
velvetleaf = test: Test B pre-/postemergence herbicide test; type: in vivo, Abutilon theophrasti; settings: for Plant response rating (0 to 100 scale), Velvetleaf: 0 is no effect
Method in brief: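 Test chemicals in a non-phytotoxic solvent mixture with surfactant were applied preemergence to seeded species and postemergence to plants 2-18 cm tall (1- to 4-leaf stage); rice and barnyardgrass were also tested in a flooded paddy at the 2-leaf stage. Visual rating versus controls after 13-15 days in greenhouse, scale 0 (no effect) to 100 (complete control).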

bermudagrass = test: Test C pre-/postemergence herbicide test; type: in vivo, Cynodon dactylon
Method in brief: (§1)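 Pre/post spray; non-phytotoxic solvent + surfactant. Post-timing 1–4 leaves, 2–18 cm. Read-out: visual % control vs untreated, day 12–14, greenhouse.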

cocklebur = test: Test C pre-/postemergence herbicide test; type: in vivo, Xanthium strumarium
Source text: (§2) Seeds of plant species selected from bermudagrass (Cynodon dactylon (L.) Pers.), Surinam grass (Urochloa decumbens (Staph) R. D. Webster, previously named Brachiaria decumbens Stapf), cocklebur (Xanthium strumarium L.), corn (Zea mays L.), large crabgrass (Digitaria sanguinalis (L.) Scop.), woolly cupgrass (Eriochloa villosa (Thunb.) Kunth), giant foxtail (Setaria faberi Herrm.), goosegrass (Eleusine indica (L.) Gaertn.), johnsongrass (Sorghum halepense (L.) Pers.), kochia (Kochia scoparia (L.) Schrad.), lambsquarters (Chenopodium album L.), morningglory (Ipomoea coccinea L.), eastern black nightshade (Solanum ptycanthum Dunal), yellow nutsedge (Cyperus esculentus L.), pigweed (Amaranthus retroflexus L.), common ragweed (Ambrosia elatior L.), soybean (Glycine max (L.) Merr.), common (oilseed) sunflower (Helianthus annuus L.) and velvetleaf (Abutilon theophrasti Medik.) were planted and treated preemergence with test chemicals formulated in a non-phytotoxic solvent mixture which included a surfactant.
(§3) At the same time, plants selected from these crop and weed species and also winter barley (Hordeum vulgare L.), blackgrass (Alopecurus myosuroides Huds.), canarygrass (Phalaris minor Retz.), chickweed (Stellaria media (L.) Vill.), downy bromegrass (Bromus tectorum L.), green foxtail (Setaria viridis (L.) Beauv.), Italian ryegrass (Lolium multiflorum Lam.), wheat (Triticum aestivum L.), wild oat (Avenafatua L.) and windgrass (Apera spica-venti (L.) Beauv.) were treated with postemergence applications of some of the test chemicals formulated in the same manner. Plants ranged in height from 2 to 18 cm (1- to 4-leaf stage) for postemergence treatments. Plant species in the flooded paddy test consisted of rice (Oryza sativa), smallflower umbrella sedge (Cyperus difformis L.), ducksalad (Heteranthera limosa (Sw.) Willd.) and barnyardgrass (Echinochloa crus-galli (L.) Beauv.) grown to the 2-leaf stage for testing. Treated plants and controls were maintained in a greenhouse for 12 to 14 days, after which time all species were compared to controls and visually evaluated. Plant response ratings, summarized in Table C, are based on a scale of 0 to 100 where 0 is no effect and 100 is complete control. A dash (-) response means no test result.

johnsongrass = test: Test C pre-/postemergence herbicide test; type: in vivo, Sorghum halepense
Method in brief: as §1

eastern black nightshade = test: Test C pre-/postemergence herbicide test; type: in vivo, Solanum ptycanthum; settings: preemergence
Source text: as §2, §3

soybean = test: Test C pre-/postemergence herbicide test; type: in vivo, Glycine max
Source text: as §2, §3

[1] = 125 g ai/ha, visual rating, scale 0 (no effect) to 100 (complete control), postemergence
[2] = postemergence, 500 g ai/ha, scale 0 to 100, 0 is no effect, 100 is complete control
[3] = 62 g ai/ha, preemergence, scale 0 to 100, 0 no effect, 100 complete control
[4] = 125 g ai/ha, scale 0 (no effect) to 100 (complete control), visual, 12 to 14 days, preemergence
[5] = 250 g ai/ha, scale 0-100, preemergence
[6] = Preemergence, 500 g ai/ha, scale 0 to 100, 0 no effect, 100 complete control
[7] = 62 g ai/ha, preemergence, scale 0 to 100
[8] = 500 g ai/ha, scale 0 to 100 (0 no effect, 100 complete control), visual, 12 to 14 days, preemergence
[9] = 125 g ai/ha, scale 0 (no effect) to 100 (complete control), visual, 12 to 14 days
[10] = 500 g ai/ha, scale 0 to 100 (0 no effect, 100 complete control), visual, 12 to 14 days
[11] = 125 g ai/ha, 100 is complete control, preemergence
[12] = Postemergence, 500 g ai/ha, scale 0 to 100
[13] = Postemergence, 250 g ai/ha, scale 0 to 100, 0 no effect, 100 complete control
[14] = postemergence, 125 g ai/ha, scale 0 to 100
[15] = postemergence, 62 g ai/ha, scale 0 to 100

| Compound | Velvetleaf plant response rating (velvetleaf; [1]) | Velvetleaf plant response rating (velvetleaf; [2]) | Plant response rating, Bermudagrass (bermudagrass; [3]) | Plant response rating, Bermudagrass (bermudagrass; [4]) | Plant response rating, Bermudagrass (bermudagrass; [5]) | Bermudagrass plant response rating (bermudagrass; [6]) | Plant response rating, Cocklebur (cocklebur; [7]) | Plant response rating, Cocklebur (cocklebur; [4]) | Plant response rating, Cocklebur (cocklebur; [5]) | Cocklebur plant response rating (cocklebur; [6]) | Plant response rating, Johnsongrass (johnsongrass; [7]) | Plant response rating, Johnsongrass (johnsongrass; [4]) | Plant response rating, Johnsongrass (johnsongrass; [5]) | Plant response rating, Johnsongrass (johnsongrass; [8]) | Plant response rating, Nightshade (eastern black nightshade; 62 g ai/ha, scale 0 to 100) | Plant response rating, Nightshade (eastern black nightshade; [9]) | Plant response rating, Nightshade (eastern black nightshade; 250 g ai/ha, scale 0-100) | Plant response rating, Nightshade (eastern black nightshade; [10]) | Plant response rating, Soybean (soybean; [7]) | Plant response rating, Soybean (soybean; [5]) | further results |
| --- | --- | --- | --- | --- | --- | --- | --- | --- | --- | --- | --- | --- | --- | --- | --- | --- | --- | --- | --- | --- | --- |
| CCn1nc(C2(C)CC2)cc1C(=O)Nc1cc(C(=O)N(C)C)ccc1F [Compound 299] | 60 | 100 | 100 | 100 | 100 | 100 | 0 | 40 | 80 | 95 | 85 | 100 | 100 | 100 | 100 | 100 | 100 | 100 | 55 | 90 | Plant response rating, Velvetleaf (velvetleaf; 500 g ai/ha, visual rating, 0 = no effect, 100 = complete control, preemergence): 100; Plant response rating, Soybean (soybean; [8]): 95 |
| CCn1nc(C(C)(C)C)cc1C(=O)Nc1cccc(OC(F)F)c1 [Compound 332] | 60 | 90 | 80 | 100 | 100 | 100 | 0 | 0 | 0 | 0 | 0 | 10 | 50 | 80 | 20 | 90 | 95 | 100 | 0 | 0 | Plant response rating (0 to 100 scale), Velvetleaf (velvetleaf; [11]): 30; Bermudagrass plant response rating (bermudagrass; [12]): 70; Plant response rating, Bermudagrass (bermudagrass; [13]): 50; Plant response rating, Bermudagrass (bermudagrass; [14]): 10; Plant response rating, Bermudagrass (bermudagrass; [15]): 5; Cocklebur plant response rating (cocklebur; [12]): 15; Plant response rating, Cocklebur (cocklebur; [13]): 10; Plant response rating, Cocklebur (cocklebur; [14]): 10; Plant response rating, Cocklebur (cocklebur; [15]): 5; Johnsongrass plant response rating (johnsongrass; [12]): 5; Plant response rating, Johnsongrass (johnsongrass; [13]): 5; Plant response rating, Johnsongrass (johnsongrass; [14]): 5; Plant response rating, Johnsongrass (johnsongrass; [15]): 0; Plant response rating, Soybean (soybean; [8]): 10; Soybean plant response rating (soybean; [12]): 90; Plant response rating, Soybean (soybean; [13]): 60; Plant response rating, Soybean (soybean; [14]): 50; Plant response rating, Soybean (soybean; [15]): 45 |
| Cc1nn(C(C)(C)C)nc1C(=O)Nc1cccc(C(=O)N2CC=CC2)c1 [Compound 393] | 40 |  | 60 |  | 100 |  | 0 |  | 100 |  | 95 |  | 100 | 100 |  |  |  |  |  |  | Plant response rating (0 to 100 scale), Velvetleaf (velvetleaf; [11]): 50; Velvetleaf plant response rating (velvetleaf; Postemergence, 500 g ai/ha, scale 0 (no effect) to 100 (complete control)): 60; Plant response rating (0 = no effect, 100 = complete control), Bermudagrass (bermudagrass; 125 g ai/ha, preemergence): 100; Plant response rating, Bermudagrass (bermudagrass; [8]): 100; Plant response rating (0 = no effect, 100 = complete control), Cocklebur (cocklebur; 125 g ai/ha, preemergence): 100; Plant response rating, Cocklebur (cocklebur; [8]): 100; Plant response rating (0 = no effect, 100 = complete control), Johnsongrass (johnsongrass; 125 g ai/ha, preemergence): 100 |
